Assays:
Type in all cases: functional, Mus musculus
MC-38 [1] = test: Percent necrosis activity against subcutaneous C38 colon tumor cells in vivo; design: concentration or dose not given beside the values
MC-38 [2] = test: Optimal dose 24 hr after intraperitoneal administration against C38 colon tumor cells in mice.
MC-38 [3] = test: Percent necrosis activity against subcutaneous C38 colon tumor cells in vivo; range is 50-90%

SMILES	Activity (MC-38 [1])	OD (MC-38 [2])	Activity (MC-38 [3])
CCOc1cccc2c(=O)c3cccc(CC(=O)O)c3oc12	>90%	330 mg/kg	–
O=C(O)Cc1cccc2c(=O)c3cccc(F)c3oc12	–	330 mg/kg	–
CCc1cccc2c(=O)c3cccc(CC(=O)O)c3oc12	>90%	100 mg/kg	–
O=C(O)Cc1cccc2c(=O)c3cccc(CC(=O)O)c3oc12	–	330 mg/kg	–
COc1cccc2c(=O)c3cccc(CC(=O)O)c3oc12	–	150 mg/kg	90%
O=C(O)Cc1cccc2c(=O)c3cccc(Cl)c3oc12	>90%	150 mg/kg	–
O=C(O)Cc1cccc2c(=O)c3cccc(C(F)(F)F)c3oc12	–	220 mg/kg	90%
CCCOc1cccc2c(=O)c3cccc(CC(=O)O)c3oc12	–	150 mg/kg	90%
O=C(O)Cc1cccc2c(=O)c3cccc(O)c3oc12	–	330 mg/kg	–
Nc1cccc2c(=O)c3cccc(CC(=O)O)c3oc12	–	1125 mg/kg	90%
CC(=O)Nc1cccc2c(=O)c3cccc(CC(=O)O)c3oc12	–	330 mg/kg	–
O=C(O)Cc1cccc2c(=O)c3ccccc3oc12	>90%	220 mg/kg	–
O=C(O)Cc1cccc2c(=O)c3cccc([N+](=O)[O-])c3oc12	–	330 mg/kg	90%
Cc1cccc2c(=O)c3cccc(CC(=O)O)c3oc12	>90%	45 mg/kg	–
O=C(O)Cc1cccc2c(=O)c3cccnc3oc12	–	750 mg/kg	–
O=C(O)Cc1cccc2c(=O)c3cccc(-c4ccccc4)c3oc12	–	750 mg/kg	–
CCCCOc1cccc2c(=O)c3cccc(CC(=O)O)c3oc12	–	220 mg/kg	90%
O=C(O)Cc1cccc2c(=O)c3cccc(Br)c3oc12	–	100 mg/kg	–

— ChEMBL document CHEMBL1124762, “Potential antitumor agents. 60. Relationships between structure and in vivo colon 38 activity for 5-substituted 9-oxoxanthene-4-acetic acids” (1990)
